Source: patent US9718825B2, “N-(4-(azaindazol-6-yl)-phenyl)-sulfonamides and their use as pharmaceuticals” (priority 2013, dated 2017)
Like-named read-outs stand apart in the source and are kept apart here.

Columns and labels:
[1] = biological target: recombinant human SGK-1 enzyme (Homo sapiens, UniProt O00141); test: Enzymatic activity assay: SGK-1 substrate peptide phosphorylation (Caliper lab-chip mobility shift); assay type: biochemical
Procedure: In one of the cellular assays, the SGK-1 dependent phosphorylation of glycogen synthase kinase 3beta (GSK3beta) in U2OS cells was measured, in another one, a functional electrophysiological assay, the SGK-1 dependent activation of epithelial Na^+ channel (ENaC) currents in A6 cell monolayers, and in another one chondrocyte hypertrophic differentiation in mouse chondrogenic ATDC5 cells.
A) Enzymatic Activity Assay
For the determination of the compound dose response, a 10 mM DMSO stock solution was diluted and tested in a ten-point, three-fold dilution series run in duplicate beginning at 30 μM final concentration. Data were analyzed using a four-parameter curve fit with a fixed minimum and maximum experimentally defined as the average positive and negative controls on each plate.

[2] = tested on: SGK-1 dependent phosphorylation of GSK3beta in U2OS cells; test: SGK-1 dependent phosphorylation of GSK3beta in U2OS cells overexpressing recombinant SGK-1 and GSK3beta; assay type: cell-based, human; conditions: Homo sapiens; U2OS cells, 6 h incubation, ratio of phosphorylated GSK3beta to total GSK3beta; read-out: IC50 values for inhibition of SGK-1 dependent phosphorylation of GSK3beta in U2OS cells
Procedure: B) Determination of the Effect on SGK-1 Dependent Phosphorylation of GSK3beta in U2OS Cells
U2OS cells were cultured in 1:1 Dulbecco modified Eagle medium/Ham's F12 and 10% heat-inactivated fetal calf serum (FCS Gold) at 37° C., 7% CO2 and 95% relative humidity. […] Cell suspension mixed with BacMam viruses was seeded in 96 well pCLEAR plates (Greiner) at 3×10^4 cells per well in 250 μl medium. […] 1 μl of a solution of the test compound at 250×final concentration was added. Cells are incubated at 37° C., 7% CO2 and 95% relative humidity. […] After removing the fixation solution, cells were permeabilised by adding 200 μl PBT (0.2% Triton X-100 in PBS) per well for 5 min. After removing PBT, cells were blocked by adding 200 μl of blocking solution (1% bovine serum albumine in PBS) per well. Blocking solution was removed and 50 μl of primary antibody (rabbit anti-phospho-GSK-3beta (Ser9), and mouse anti-GSK-3beta) were added for 1 h. […] After washing the cells 3 times with PBS, 200 μl of PBS were added. Fluorescence signals were measured with the ImageXpress MICRO (Molecular Devices).

[3] = peptide substrate 1 μM, ATP 10 μM, 60 min at 37° C., read-out: IC50 values for inhibition of SGK-1 enzymatic activity
[4] = read-out: IC50 values for inhibition of SGK-1 enzymatic activity, peptide substrate 1 μM, ATP 10 μM, 60 min at 37° C.

recombinant human SGK-1 enzyme, sequence (O00141 whole entry, looked up): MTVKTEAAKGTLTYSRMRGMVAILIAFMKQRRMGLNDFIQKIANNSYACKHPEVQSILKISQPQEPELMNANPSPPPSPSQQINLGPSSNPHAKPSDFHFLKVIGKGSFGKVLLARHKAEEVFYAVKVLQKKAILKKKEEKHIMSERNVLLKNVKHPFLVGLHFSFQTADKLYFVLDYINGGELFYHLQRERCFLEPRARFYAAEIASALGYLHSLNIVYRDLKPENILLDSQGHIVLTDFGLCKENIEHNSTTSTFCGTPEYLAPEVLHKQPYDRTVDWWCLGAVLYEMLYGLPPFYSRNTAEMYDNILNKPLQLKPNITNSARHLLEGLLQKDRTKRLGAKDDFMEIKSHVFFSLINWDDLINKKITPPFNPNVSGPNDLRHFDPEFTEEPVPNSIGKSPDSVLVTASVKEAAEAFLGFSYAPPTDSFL

| SMILES | IC50 [1, 3] | also measured |
| --- | --- | --- |
| COc1ccc(Cl)c(S(=O)(=O)Nc2ccc(-c3cc4[nH]nc(C)c4c(Oc4ccnc(OC)c4)n3)cc2)c1 [Example 670] | 25 nM |  |
| COc1ccc(Cl)c(S(=O)(=O)Nc2ccc(-c3cc4[nH]nc(C)c4c(Oc4ccc(OC)nc4)n3)cc2)c1 [Example 651] | 25 nM |  |
| Nc1n[nH]c2nc(-c3ccc(NS(=O)(=O)c4cc(Cl)c(F)cc4F)cc3)ncc12 [Example 445, N-[4-(3-Amino-1H-pyrazolo[3,4-d]pyrimidin-6-yl)-phenyl]-5-chloro-2,4-difluoro-benzenesulfonamide] |  | IC50 [2]: 340 nM |
| COc1ccc(Oc2nc(-c3ccc(NS(=O)(=O)c4ccccc4F)cc3)cc3[nH]nc(C)c23)cn1 [Example 624] | 37 nM |  |
| CCN1CCC(Oc2nc(-c3ccc(NS(=O)(=O)c4ccccc4F)cc3)nc3[nH]nc(C)c23)CC1 [Example 402] | 13 nM |  |
| Nc1n[nH]c2cc(-c3ccc(NS(=O)(=O)c4cccc(Cl)c4F)cc3)nc(C(F)(F)F)c12 [Example 578] | 430 nM |  |
| COc1cc(Oc2nc(-c3ccc(NS(=O)(=O)c4cc(Cl)ccc4F)cc3)cc3[nH]nc(C)c23)ccn1 [Example 666] | 25 nM |  |
| COc1ccc(F)c(S(=O)(=O)Nc2ccc(-c3cc4[nH]nc(C)c4c(Oc4ccc(OC)nc4)n3)cc2)c1 [Example 653] | 30 nM |  |
| CCOc1nc(-c2ccc(NS(=O)(=O)c3cc(F)c(F)cc3F)cc2)cc2[nH]nc(N)c12 [Example 613] | 19 nM |  |
| O=S(=O)(Nc1ccc(-c2nc(OC3CCNCC3(F)F)c3cn[nH]c3n2)cc1)c1cc(Cl)ccc1Cl (stereo not shown) [Example 247] | 6.5 nM |  |
| Cc1n[nH]c2cc(-c3ccc(NS(=O)(=O)c4cc(Cl)ccc4Cl)cc3)nc(OC3CC(C)(C)N(C)C(C)(C)C3)c12 [Example 620] | 3.9 nM |  |
| COc1cc(Oc2nc(-c3ccc(NS(=O)(=O)c4cc(Cl)ccc4Cl)cc3)cc3[nH]nc(C)c23)ccn1 [Example 669] | 31 nM |  |
| Cc1nc(-c2ccc(NS(=O)(=O)c3cccc(C#N)c3)cc2)nc2[nH]nc(N)c12 [Example 471] | 97 nM |  |
| COc1ccc(Oc2nc(-c3ccc(NS(=O)(=O)c4cc(Cl)ccc4F)cc3)cc3[nH]nc(C)c23)cn1 [Example 634] | 23 nM |  |
| Cc1ccc(F)c(S(=O)(=O)Nc2ccc(-c3nc(OCC(F)(F)CN)c4c(C)n[nH]c4n3)cc2)c1 [Example 364] | 6.5 nM |  |
| Cc1n[nH]c2nc(-c3ccc(NS(=O)(=O)c4ccccc4F)cc3)nc(OCC(CO)CO)c12 [Example 360] | 110 nM |  |
| COc1cc(Oc2nc(-c3ccc(NS(=O)(=O)c4cc(C)ccc4C#N)cc3)cc3[nH]nc(C)c23)ccn1 [Example 667] | 11 nM |  |
| COc1ccc(Oc2nc(-c3ccc(NS(=O)(=O)c4cc(F)ccc4F)cc3)cc3[nH]nc(C)c23)cn1 [Example 622] | 37 nM |  |
| O=S(=O)(Nc1ccc(-c2nc(C3CC3)c3cn[nH]c3n2)cc1)c1ccccc1F [Example 206] | 1100 nM |  |
| O=S(=O)(Nc1ccc(-c2nc(-c3cccnc3)c3cn[nH]c3n2)cc1)c1cc(Cl)ccc1Cl [Example 5, 2,5-Dichloro-N-[4-(4-pyridin-3-yl-1H-pyrazolo[3,4-d]pyrimidin-6-yl)-phenyl]-benzenesulfonamide] |  | IC50 [1, 4]: < 1.2 nM |
| Nc1n[nH]c2cc(-c3ccc(NS(=O)(=O)c4cc(F)cc(F)c4Cl)cc3)nc(C(F)(F)F)c12 [Example 576] | 430 nM |  |
| CC(C)COc1nc(-c2ccc(NS(=O)(=O)c3cc(F)c(F)cc3Cl)cc2)nc2[nH]nc(N)c12 [Example 325] | 1100 nM |  |
| CCCOc1nc(-c2ccc(NS(=O)(=O)c3cc(F)c(F)cc3Cl)cc2)cc2[nH]nc(N)c12 [Example 605] | 23 nM |  |
| COCCc1nc(-c2ccc(NS(=O)(=O)c3ccc(F)cc3Cl)cc2)nc2[nH]nc(N)c12 [Example 507] | 1500 nM |  |
| Cc1n[nH]c2cc(-c3ccc(NS(=O)(=O)c4cc(Cl)ccc4F)cc3)nc(OCCC(=O)N(C)C)c12 [Example 687] | 15 nM |  |
| CCCOc1nc(-c2ccc(NS(=O)(=O)c3cc(Cl)ccc3Cl)cc2)cc2[nH]nc(N)c12 [Example 664] | 13 nM |  |
| Cc1n[nH]c2cc(-c3ccc(NS(=O)(=O)c4cc(F)ccc4F)cc3)nc(OCC3CN(C(C)C)C3)c12 [Example 592] | 2 nM |  |
| N#Cc1ccc(Cl)cc1S(=O)(=O)Nc1ccc(-c2cc3[nH]nc(N)c3c(C(F)(F)F)n2)cc1 [Example 570] | 2 nM |  |

| SMILES | IC50 [1, 3] | also measured |
| --- | --- | --- |
| CCOc1nc(-c2ccc(NS(=O)(=O)c3cc(Cl)ccc3F)cc2)cc2[nH]nc(C)c12 [Example 676] | 23 nM |  |
| Cc1ccc(C#N)c(S(=O)(=O)Nc2ccc(-c3nc(OCC(CO)CO)c4c(C)n[nH]c4n3)cc2)c1 [Example 371] | 3.9 nM |  |
| COCCN1CCC(Oc2nc(-c3ccc(NS(=O)(=O)c4cc(F)ccc4F)cc3)nc3[nH]nc(C)c23)CC1 [Example 407] | 11 nM |  |
| COCCc1nc(-c2ccc(NS(=O)(=O)c3cc(Cl)ccc3F)cc2)nc2[nH]nc(N)c12 [Example 525] | 25 nM |  |
| Nc1n[nH]c2nc(-c3ccc(NS(=O)(=O)c4cc(Cl)c(F)cc4F)cc3)nc(C3CC3)c12 [Example 448, N-[4-(3-Amino-4-cyclopropyl-1H-pyrazolo[3,4-d]pyrimidin-6-yl)phenyl]-5-chloro-2,4-difluoro-benzenesulfonamide] |  | IC50 [1, 4]: < 1.5 nM |
| Nc1n[nH]c2nc(-c3ccc(NS(=O)(=O)c4cc(Cl)ccc4Cl)cc3)nc(OCC3CC3)c12 [Example 355] | 13 nM |  |
| CCOc1nc(-c2ccc(NS(=O)(=O)c3cc(F)c(F)cc3Cl)cc2)cc2[nH]nc(N)c12 [Example 614] | 97 nM |  |
| Cc1ccc(F)c(S(=O)(=O)Nc2ccc(-c3cc4[nH]nc(C)c4c(OCCC(=O)N(C)C)n3)cc2)c1 [Example 686] | 11 nM |  |
| Cc1n[nH]c2cc(-c3ccc(NS(=O)(=O)c4cc(F)cc(F)c4Cl)cc3)nc(OC3CCN(C4CCC4)CC3)c12 [Example 638] | 11 nM |  |
| Cc1n[nH]c2cc(-c3ccc(NS(=O)(=O)c4cc(Cl)ccc4F)cc3)nc(Oc3ccc(N(C)C)nc3)c12 [Example 694] | 25 nM |  |
| COc1ccc(F)c(S(=O)(=O)Nc2ccc(-c3cc4[nH]nc(C)c4c(OCCC(=O)N(C)C)n3)cc2)c1 [Example 692] | 6.5 nM |  |
| O=S(=O)(Nc1ccc(-c2nc(OCC(F)(F)F)c3cn[nH]c3n2)cc1)c1cc(Cl)ccc1Cl [Example 161] | 19 nM |  |
| COc1nc(-c2ccc(NS(=O)(=O)c3cc(Cl)ccc3F)cc2)nc2[nH]nc(N)c12 [Example 7, N-[4-(3-Amino-4-methoxy-1H-pyrazolo[3,4-d]pyrimidin-6-yl)-phenyl]-5-chloro-2-fluoro-benzenesulfonamide] |  | IC50 [1, 4]: < 1.5 nM |
| CC(C)COc1nc(-c2ccc(NS(=O)(=O)c3ccc(F)cc3Cl)cc2)nc2[nH]nc(N)c12 [Example 318] | 950 nM |  |
| COc1ccc(Oc2nc(-c3ccc(NS(=O)(=O)c4cc(C)ccc4F)cc3)cc3[nH]nc(C)c23)cn1 [Example 654] | 37 nM |  |
| COCCc1nc(-c2ccc(NS(=O)(=O)c3cc(F)c(F)cc3Cl)cc2)nc2[nH]nc(N)c12 [Example 510] | 1500 nM |  |
| CCOc1nc(-c2ccc(NS(=O)(=O)c3cc(OC)ccc3Cl)cc2)cc2[nH]nc(C)c12 [Example 675] | 15 nM |  |
| COc1ccc(Cl)c(S(=O)(=O)Nc2ccc(-c3cc4[nH]nc(C)c4c(Oc4ccc(N(C)C)nc4)n3)cc2)c1 [Example 699] | 25 nM |  |
| COc1ccc(Cl)c(S(=O)(=O)Nc2ccc(-c3cc4[nH]nc(C)c4c(OCCC(=O)N(C)C)n3)cc2)c1 [Example 689] | 13 nM |  |
| O=C(Nc1n[nH]c2nc(-c3ccc(NS(=O)(=O)c4cc(Cl)ccc4Cl)cc3)ncc12)c1cccc(Cl)c1Cl [Example 540] | 11 nM |  |
| Nc1n[nH]c2cc(-c3ccc(NS(=O)(=O)c4cc(F)cc(F)c4Cl)cc3)ncc12 [Example 557] | 96 nM |  |
| Cc1ccc(Cl)c(S(=O)(=O)Nc2ccc(-c3cc4[nH]nc(C)c4c(OC4CC(C)(C)NC(C)(C)C4)n3)cc2)c1 [Example 648] | 3.9 nM |  |
| Cc1ccc(F)c(S(=O)(=O)Nc2ccc(-c3nc(O)c4cn[nH]c4n3)cc2)c1 [Example 108] | 25 nM |  |
| Cc1n[nH]c2nc(-c3ccc(NS(=O)(=O)c4cc(Cl)ccc4C#N)cc3)nc(OCC(C)C)c12 [Example 354] | 110 nM |  |
| COCCc1nc(-c2ccc(NS(=O)(=O)c3ccccc3F)cc2)nc2[nH]nc(N)c12 [Example 512] | 1500 nM |  |
| COc1ccc(C#N)c(S(=O)(=O)Nc2ccc(-c3nc(OC4CCC(O)CC4)c4c(C)n[nH]c4n3)cc2)c1 (stereo not shown) [Example 130] | 13 nM |  |
| Cc1n[nH]c2nc(-c3ccc(NS(=O)(=O)c4ccccc4F)cc3)nc(OC3CCN(C(C)C)CC3)c12 [Example 352] | 11 nM |  |
